Assay results reported in ChEMBL document CHEMBL1140625 (Bioorg Med Chem, 2007).

Molecular target: Human immunodeficiency virus type 1 integrase (Human immunodeficiency virus 1, UniProt Q7ZJM1)
Assay: Inhibition of HIV1 integrase

Human immunodeficiency virus type 1 integrase, sequence (Q7ZJM1 whole entry): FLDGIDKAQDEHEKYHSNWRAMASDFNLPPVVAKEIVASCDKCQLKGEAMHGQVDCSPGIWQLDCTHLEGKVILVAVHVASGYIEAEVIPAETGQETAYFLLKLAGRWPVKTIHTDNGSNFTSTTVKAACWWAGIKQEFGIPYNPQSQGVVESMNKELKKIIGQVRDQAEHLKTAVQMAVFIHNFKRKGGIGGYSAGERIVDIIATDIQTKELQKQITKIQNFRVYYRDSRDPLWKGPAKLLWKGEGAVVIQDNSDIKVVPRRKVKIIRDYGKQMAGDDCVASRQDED

IC50 [µM] | Compound
< 1 | O=C(/C=C(\O)c1cc[nH]c1)c1ccc(Cc2ccc(F)cc2)o1
< 1 | O=C(/C=C(\O)c1nc[nH]n1)c1ccc(Cc2ccc(F)cc2)[nH]1
